Assay results: US20260008793A1, “IONIZABLE CATIONIC LIPIDS INCORPORATING SILICON” (ALDEXCHEM KFT., priority 2022, published 2026)

What was measured:
[1] = LNP size, PDI and zeta potential by Dynamic Light Scattering (Method A); assay type: physicochemical; conditions: LNP formulated by Method A; for Zeta potential (mV): 1xPBS pH 7.4; for PDI / Size (nm): DLS; for Size (nm): Luciferase-mRNA loaded
In short: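 LNPs formulated by microfluidic mixing of mRNA in 10 mM citrate pH 4.0 with ethanolic lipid mix (ionizable lipid added to master mix) at 3:1 aqueous:lipid ratio, then dialysed (100 kDa MWCO). Size, PDI and zeta potential measured by dynamic light scattering.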

HeLa cells = assay: Transfection efficiency with Luciferase-mRNA, Nano-Glo assay (Method A); assay type: cell-based; conditions: 100 ng Luciferase (SecNLuc) mRNA, 24 h, luminescence
In short: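 LNPs carrying secreted NanoLuc mRNA (100, 50 or 10 ng/well, in Opti-MEM) added to HeLa cells at ~80% confluence and incubated 24 h. Medium luciferase activity measured by Nano-Glo luminescence about 3 min after reagent addition; toxicity tested in parallel by resazurin.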

SMILES | Zeta potential (mV) [1] | PDI [1] | Size (nm) [1] | Transfection* (Method A = 100 ng mRNA) (HeLa cells)
CC/C=C\C/C=C\C/C=C\C/C=C\C/C=C\CCCCN(CCCCO)CCCCCCOC(CCCCCCC)O[Si](C)(C)CCCCCCCC (stereo not shown) [Example 195, 13-heptyl-5-((5Z,8Z,11Z,14Z,17Z)-icosa-5,8,11,14,17-pentaen-1-yl)-15,15-dimethyl-12,14-dioxa-5-aza-15-silatricosan-1-ol] | −5.8 mV | 0.04 | 155.2 nm | 180769
CCCCCCCCOC(CCCCCN(CCO)CCCCCCCC(=O)OC(CCCCCCCC)CCCCCCCC)O[Si](C)(C)CCCCCCCC (stereo not shown) [Example 189, heptadecan-9-yl 8-((6-((dimethyl(octyl)silyl)oxy)-6-(octyloxy)hexyl)(2-hydroxyethyl)amino)octanoate] | −10.68 mV | 0.066 | 170 nm | 45731
CCCCCCCC[Si](C)(C)OC(CCCCCCC)OCCCCCCN(CCCCO)CCC[C@@H](C)C1CCC2C3CCC4C[C@H](OC)CC[C@]4(C)C3CC[C@@]21C (stereo partly drawn) [Example 215, 13-heptyl-5-((4R)-4-((3R,10S,13R)-3-methoxy-10,13-dimethylhexadecahydro-1H-cyclopenta[a]phenanthren-17-yl)pentyl)-15,15-dimethyl-12,14-dioxa-5-aza-15-silatricosan-1-ol] | −3.3 mV | 0.211 | 204 nm | 522805
CCCCCCCCOC(CCCCCN(CCCCO)CCCCCCOC(=O)C(CCCCCC)CCCCCCCC)O[Si](C)(C)OCC(CCCCCC)CCCCCCCC (stereo not shown) [Example 136, 18-hexyl-7-(4-hydroxybutyl)-15,15-dimethyl-13-(octyloxy)-14,16-dioxa-7-aza-15-silahexacosyl 2-hexyldecanoate] | −13.28 mV | 0.259 | 305.2 nm | 61666
CCCCCCCCOC(CCCCCN(CCCCCC(OCCCCCCCC)O[Si](C)(C)CCCCCCCC)CCC1CCCN1C)O[Si](C)(C)CCCCCCCC (stereo not shown) [Example 116, 6-((dimethyl(octyl)silyl)oxy)-N-(6-((dimethyl(octyl)silyl)oxy)-6-(octyloxy)hexyl)-N-(2-(1-methylpyrrolidin-2-yl)ethyl)-6-(octyloxy)hexan-1-amine] | −14.17 mV | 0.092 | 189.8 nm | 118987
CC/C=C\C/C=C\C/C=C\C/C=C\C/C=C\CCCCN(CCCCO)CCCCCC(OCCCCCCCC)O[Si](C)(C)O[Si](C)(C)CCCCCCCC (stereo not shown) [Example 198, 4-(((5Z,8Z,11Z,14Z,17Z)-icosa-5,8,11,14,17-pentaen-1-yl)(6-(octyloxy)-6-((1,1,3,3-tetramethyl-3-octyldisiloxaneyl)oxy)hexyl)amino)butan-1-ol] | −13.07 mV | 0.004 | 158 nm | 53096
CCCCCCCCCCSC(CCCC)C(=O)OCCCCCCN(CCCCO)CCCCCCO[Si](C)(C)OC(CCCCCCC)OCCCCCCCC (stereo not shown) [Example 176, 17-heptyl-7-(4-hydroxybutyl)-15,15-dimethyl-14,16,18-trioxa-7-aza-15-silahexacosyl 2-(decylthio)hexanoate] | −15.0 mV | 0.18 | 175.00 nm | 12359273
CCCCCCCCOC(CCCCCCCC)O[Si](C)(C)OCCCCCCN(CCCCO)CCCCCCOC(=O)C(CCCCCC)CCCCCCCC (stereo not shown) [Example 143, 7-(4-hydroxybutyl)-15,15-dimethyl-17-octyl-14,16,18-trioxa-7-aza-15-silahexacosyl 2-hexyldecanoate] | −5.5 mV | 0.17 | 159.7 nm | 4825007
CCCCCCCCOC(CCCCCN(CCCCO)CCC[C@@H](C)C1CCC2C3CCC4C[C@H](OC)CC[C@]4(C)C3CC[C@@]21C)O[Si](C)(C)O[Si](C)(C)CCCCCCCC (stereo partly drawn) [Example 218, 4-(((4R)-4-((3R,10S,13R)-3-methoxy-10,13-dimethylhexadecahydro-1H-cyclopenta[a]phenanthren-17-yl)pentyl)(6-(octyloxy)-6-((1,1,3,3-tetramethyl-3-octyldisiloxaneyl)oxy)hexyl)amino)butan-1-ol] | −12.88 mV | 0.028 | 165.6 nm | 94651
CC/C=C\C/C=C\C/C=C\C/C=C\C/C=C\CCCCN(CCCCO)CCCCCCOC(CCCCCCC)O[Si](C)(C)O[Si](C)(C)CCCCCCCC (stereo not shown) [Example 199, 13-heptyl-5-((5Z,8Z,11Z,14Z,17Z)-icosa-5,8,11,14,17-pentaen-1-yl)-15,15,17,17-tetramethyl-12,14,16-trioxa-5-aza-15,17-disilapentacosan-1-ol] | −12.42 mV | 0.08 | 164.3 nm | 144984
